Results published in ChEMBL document CHEMBL1697731, “Cheminformatics analysis of assertions mined from literature that describe drug-induced liver injury in different species” (Chem Res Toxicol, 2010).

Tests used:
[1] = tested on: Hepatotoxicity; test: Literature-mined compound from Fourches et al multi-species drug-induced liver injury (DILI) dataset, effect in humans; settings: human
[2] = tested on: Hepatotoxicity; test: Literature-mined compound from Fourches et al multi-species drug-induced liver injury (DILI) dataset, effect in rodents; settings: rodentia
[3] = tested on: Hepatotoxicity; test: Literature-mined compound from Fourches et al multi-species drug-induced liver injury (DILI) dataset, effect in non-rodents

| Compound | Hepatotoxicity [1] | Hepatotoxicity [2] | Hepatotoxicity [3] | Hepatotoxicity ([1]; Liver) | Hepatotoxicity ([2]; Liver) | Hepatotoxicity ([3]; Liver) |
| --- | --- | --- | --- | --- | --- | --- |
| OCC(CO)N[C@H]1C[C@](O)(CO)[C@@H](O)[C@H](O)[C@H]1O [VOGLIBOSE] | drug-induced liver injury reported | drug-induced liver injury reported | no drug-induced liver injury reported | – | – | – |
| C[C@@H](c1ncncc1F)[C@](O)(Cn1cncn1)c1ccc(F)cc1F [VORICONAZOLE] | drug-induced liver injury reported | no drug-induced liver injury reported | no drug-induced liver injury reported | – | – | – |
| O=C(CCCCCCC(=O)Nc1ccccc1)NO [VORINOSTAT] | drug-induced liver injury reported | drug-induced liver injury reported | no drug-induced liver injury reported | – | – | – |
| CC(=O)CC(c1ccccc1)c1c(O)c2ccccc2oc1=O (centres undefined) [WARFARIN] | drug-induced liver injury reported | drug-induced liver injury reported | no drug-induced liver injury reported | – | – | – |
| CCOC(=O)CN[C@@H](C(=O)N1CC[C@H]1C(=O)NCc1ccc(/C(N)=N\O)cc1)C1CCCCC1 [XIMELAGATRAN] | drug-induced liver injury reported | no drug-induced liver injury reported | no drug-induced liver injury reported | – | – | – |
| Cc1cccc(C)c1NC(=O)c1cc(S(N)(=O)=O)c(Cl)cc1O [XIPAMIDE] | no drug-induced liver injury reported | drug-induced liver injury reported | no drug-induced liver injury reported | – | – | – |
| COC(=O)[C@@H]1[C@H]2C[C@H]3c4[nH]c5ccccc5c4CCN3C[C@@H]2CC[C@@H]1O [YOHIMBINE] | no drug-induced liver injury reported | drug-induced liver injury reported | no drug-induced liver injury reported | – | – | – |
| COc1cc(C(=O)NS(=O)(=O)c2ccccc2C)ccc1Cc1cn(C)c2ccc(NC(=O)OC3CCCC3)cc12 [ZAFIRLUKAST] | drug-induced liver injury reported | no drug-induced liver injury reported | no drug-induced liver injury reported | – | – | – |
| Nc1ccn([C@H]2CC[C@@H](CO)O2)c(=O)n1 [ZALCITABINE] | – | – | – | drug-induced liver injury reported | drug-induced liver injury reported | no drug-induced liver injury reported |
| Cc1cn([C@H]2C[C@H](N=[N+]=[N-])[C@@H](CO)O2)c(=O)[nH]c1=O [ZIDOVUDINE] | drug-induced liver injury reported | drug-induced liver injury reported | no drug-induced liver injury reported | – | – | – |
| CC(c1cc2ccccc2s1)N(O)C(N)=O (centres undefined) [ZILEUTON] | drug-induced liver injury reported | drug-induced liver injury reported | no drug-induced liver injury reported | – | – | – |
| CC(=O)[O][Zn][O]C(C)=O [ZINC ACETATE ANHYDROUS] | – | – | – | no drug-induced liver injury reported | drug-induced liver injury reported | no drug-induced liver injury reported |
| Cc1ccc(-c2nc3ccc(C)cn3c2CC(=O)N(C)C)cc1 [ZOLPIDEM] | drug-induced liver injury reported | no drug-induced liver injury reported | no drug-induced liver injury reported | – | – | – |
| BLEOMYCIN | drug-induced liver injury reported | drug-induced liver injury reported | no drug-induced liver injury reported | – | – | – |
| CARBOPLATIN | drug-induced liver injury reported | drug-induced liver injury reported | no drug-induced liver injury reported | – | – | – |
| CHOLESTYRAMINE | drug-induced liver injury reported | drug-induced liver injury reported | no drug-induced liver injury reported | – | – | – |
| DALTEPARIN SODIUM | no drug-induced liver injury reported | drug-induced liver injury reported | no drug-induced liver injury reported | – | – | – |

| Compound | Hepatotoxicity [1] | Hepatotoxicity [2] | Hepatotoxicity [3] | Hepatotoxicity ([1]; Liver) | Hepatotoxicity ([2]; Liver) | Hepatotoxicity ([3]; Liver) |
| --- | --- | --- | --- | --- | --- | --- |
| GADOBENATE DIMEGLUMINE | drug-induced liver injury reported | no drug-induced liver injury reported | no drug-induced liver injury reported | – | – | – |
| GENTAMICIN | no drug-induced liver injury reported | drug-induced liver injury reported | no drug-induced liver injury reported | – | – | – |
| GLATIRAMER ACETATE | drug-induced liver injury reported | drug-induced liver injury reported | no drug-induced liver injury reported | – | – | – |
| GOLD SODIUM THIOMALATE | drug-induced liver injury reported | drug-induced liver injury reported | no drug-induced liver injury reported | – | – | – |
| HEPARIN | drug-induced liver injury reported | drug-induced liver injury reported | drug-induced liver injury reported | – | – | – |
| HYALURONIC ACID | drug-induced liver injury reported | drug-induced liver injury reported | no drug-induced liver injury reported | – | – | – |
| IRON(II) CITRATE | no drug-induced liver injury reported | drug-induced liver injury reported | no drug-induced liver injury reported | – | – | – |
| IVERMECTIN | drug-induced liver injury reported | no drug-induced liver injury reported | no drug-induced liver injury reported | – | – | – |
| LACTOSE, ANHYDROUS | no drug-induced liver injury reported | drug-induced liver injury reported | no drug-induced liver injury reported | – | – | – |
| LECITHIN | drug-induced liver injury reported | drug-induced liver injury reported | no drug-induced liver injury reported | – | – | – |
| MANGAFODIPIR TRISODIUM | drug-induced liver injury reported | no drug-induced liver injury reported | no drug-induced liver injury reported | – | – | – |
| METHYLCOBALAMIN | no drug-induced liver injury reported | drug-induced liver injury reported | no drug-induced liver injury reported | – | – | – |
| OXALIPLATIN | drug-induced liver injury reported | no drug-induced liver injury reported | no drug-induced liver injury reported | – | – | – |
| POLYETHYLENE GLYCOL | drug-induced liver injury reported | drug-induced liver injury reported | no drug-induced liver injury reported | – | – | – |
| POLYMYXIN B | drug-induced liver injury reported | drug-induced liver injury reported | no drug-induced liver injury reported | – | – | – |
| POLYVINYL ALCOHOL | no drug-induced liver injury reported | no drug-induced liver injury reported | drug-induced liver injury reported | – | – | – |
